Assay results reported in patent publication US6441177B1 (Hoffmann-La Roche Inc., priority 1995, dated 2002).
Values after ≈ are worked out from the molar mass of the structure shown. Where two headings read alike, the source gives them in different places.

Columns and labels:
[1] = target: T1, human liver microsomal 2,3-oxidosqualene-lanosterol cyclase (OSC) (Homo sapiens, UniProt P48449); experiment: Inhibition of human liver microsomal 2,3-oxidosqualene-lanosterol cyclase (OSC); format: biochemical; settings: human liver microsomes; for IC50: concentration reducing conversion of MOS into lanosterol to 50% of control; for inhibition at 0.1 µM: constant test substance concentration of 100 nM, 1 hour at 37° C., against controls
T1 construct: Liver microsomes from a healthy volunteer were prepared in sodium phosphate buffer (pH 7.4); from tissue; host or cells: human liver microsomes from a healthy volunteer
T1 sequence (P48449 1-732): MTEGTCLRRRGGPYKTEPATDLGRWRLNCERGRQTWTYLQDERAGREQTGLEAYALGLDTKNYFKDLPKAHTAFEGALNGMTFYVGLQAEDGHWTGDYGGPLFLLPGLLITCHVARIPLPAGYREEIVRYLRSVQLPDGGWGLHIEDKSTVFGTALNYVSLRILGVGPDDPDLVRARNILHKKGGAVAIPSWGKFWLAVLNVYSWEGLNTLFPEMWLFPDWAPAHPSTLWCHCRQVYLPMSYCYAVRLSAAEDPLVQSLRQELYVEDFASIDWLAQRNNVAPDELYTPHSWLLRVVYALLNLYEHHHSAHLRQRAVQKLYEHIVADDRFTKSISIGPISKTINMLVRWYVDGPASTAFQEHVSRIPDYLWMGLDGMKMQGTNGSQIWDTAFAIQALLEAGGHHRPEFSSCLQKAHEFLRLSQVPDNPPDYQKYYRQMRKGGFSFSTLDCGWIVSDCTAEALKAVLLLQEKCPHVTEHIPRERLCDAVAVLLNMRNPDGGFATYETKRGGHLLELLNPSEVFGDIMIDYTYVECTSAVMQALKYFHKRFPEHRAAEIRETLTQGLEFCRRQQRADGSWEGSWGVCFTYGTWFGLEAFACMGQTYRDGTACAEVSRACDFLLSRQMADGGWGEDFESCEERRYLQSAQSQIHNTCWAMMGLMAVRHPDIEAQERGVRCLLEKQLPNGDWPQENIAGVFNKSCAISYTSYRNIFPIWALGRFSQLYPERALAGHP
Procedure: Inhibition of Human Liver Microsomal 2,3-Oxidosqualene-lanosterol Cyclase (OSC)
Liver microsomes from a healthy volunteer were prepared in sodium phosphate buffer (pH 7.4). The OSC activity was measured in the same buffer which also contained 1 mM EDTA and 1 mM dithiothreitol. The microsomes were diluted to 0.8 mg/ml protein in cold phosphate buffer. Dry [^14C]R,S-monooxidosqualene (MOS; 12.8 mCi/mmol) was diluted to 20 nCi/μl with ethanol and mixed with phosphate buffer-1% BSA (Bovine Serum Albumin). A stock solution of 1 mM test substance in DMSO was diluted to the desired concentration with phosphate buffer-1% BSA. 40 μl of microsomes were mixed with 20 μl of the solution of the test substance and the reaction was subsequently started with 20 μl of the [^14C]R,S-MOS solution. The final conditions were: 0.4 mg/ml of microsomal proteins and […] of [^14C]R,S-MOS in phosphate buffer, pH 7.4, containing 0.5% albumin, DMSO <0.1% and ethanol <2%, in a total volume of 80 μl.
After 1 hour at 37° C. the reaction was stopped by the addition of 0.6 ml of 10% KOH-methanol, 0.7 ml of water and 0.1 ml of hexane:ether (1:1, v/v) which contained 25 μg of non-radioactive MOS and 25 μg of lanosterol as the carrier. After shaking 1 ml of hexane:ether (1:1, v/v) was added to each test tube, these were again shaken and then centrifuged. The upper phase was transferred into a glass test tube, the lower phase was again extracted with hexane:ether and combined with the first extract. The entire extract was evaporated to dryness with nitrogen and the residue was suspended in 50 μl of hexane:ether and applied to a silica gel plate. Chromatographic separation was effected in hexane:ether (1:1, v/v) as the eluent. […] After drying radioactive MOS and lanosterol were observed on the silica gel plate. The ratio of MOS to lanosterol was determined from the radioactive bands in order to determine the OSC inhibition.
The test was carried out on the one hand with a constant test substance concentration of 100 nM and the percentage OSC inhibition against controls was calculated. In addition, the test was carried out with different test substance concentrations and subsequently the IC50 value was calculated, i.e. the concentration required to reduce the conversion of MOS into lanosterol to 50% of the control value.

Aspergillus fumigatus = experiment: Antifungal activity in vitro, microdilution method; format: cell-based; settings: growth inhibition, incubation at 27° C. for 48 hours, read-out: IC50 (mg/ml) for: A. fumigatus after: 48 hours
Procedure: (§1) Antifungal Activity In Vitro The compounds were tested for antifungal activity against Candida albicans, Cryptococcus neoformans and Aspergillus fumigatus using a microdilution method on microtitre plates (96 wells per plate). Yeast supplemented with 1% glucose and 0.25% di-potassium phosphate was used for the three fungal strains. The fungal cells were inoculated at 3×10^4 CFU (Colony Forming Unit) in […] of medium per well. The medium contained increasing concentrations of test substance. After incubation at 27° C. for 24 or 48 hours the turbidity in each well was measured by a microtitre plate reader. The growth inhibition was calculated in comparison to a control (without test substance). The IC50 value given in the following Table is the concentration of test substance at which the growth is inhibited by 50%.

Candida albicans = experiment: Antifungal activity in vitro, microdilution method; format: cell-based; settings: growth inhibition
Procedure: as §1

Cryptococcus neoformans = experiment: Antifungal activity in vitro, microdilution method; format: cell-based; settings: growth inhibition, incubation at 27° C. for 48 hours, read-out: IC50 (mg/ml) for: C. neoformans after: 48 hours
Procedure: as §1

[2] = incubation at 27° C. for 24 hrs., read-out: IC50 (mg/ml) for: C. albicans after: 24 hrs.
[3] = incubation at 27° C. for 48 hrs., read-out: IC50 (mg/ml) for: C. albicans after: 48 hrs.

Row | IC50 [1] | inhibition at 0.1 µM [1] | SMILES | further results
1 | 23.7 nM | 78% | C=CCN(C)C/C=C/COc1ccc(C(O)(C=C)c2ccc(Br)cc2)cc1 (racemic) [Example 8b, (E)-(RS)-1-[4-[4-(allyl-methyl-amino)-but-2-enyloxy]-phenyl]-1-(4-bromo-phenyl)-prop-2-en-1-ol] | –
2 | 22 nM | 85% | CN(C[C@@H]1C[C@H]1COc1ccc(C(=O)c2ccc(Br)cc2)cc1)C1CC1 (racemic) [Example 31, (1RS,2RS)-(4-bromo-phenyl)-[4-[2-[(cyclopropyl-methyl-amino)-methyl]-cyclopropylmethoxy]-phenyl]-methanone] | –
3 | 3.6 nM | 85% | CN(C[C@@H]1C[C@H]1COc1ccc(C(=O)c2ccc(Br)cc2)cc1F)C1CC1 (racemic) [Example 32a, (1RS,2RS)-(4-bromo-phenyl)-[4-[2-[(cyclopropyl-methyl-amino)-methyl]-cyclopropylmethoxy]-3-fluoro-phenyl]-methanone] | –
4 | 21 nM | 82% | C=CCN(C)CCCCCCOc1ccc(C(C)(O)c2ccc(Br)cc2)c(F)c1 (racemic) [Example 38, (RS)-1-[4-[6-(allyl-methyl-amino)-hexyloxy]-2-fluoro-phenyl]-1-(4-bromo-phenyl)-ethanol] | –
5 | 12.3 nM | 87% | C=CCN(C)C/C=C/COc1ccc(C(C)(O)CCC=C(C)C)cc1 (racemic) [Example 39a, (E)-(RS)-2-[4-[4-(allyl-methyl-amino)-but-2-enyloxy]-phenyl]-6-methyl-hept-5-en-2-ol] | –
6 | – | – | C=CCN(C)Cc1ccc(-c2ccc(C(F)c3ccc(Br)cc3)cc2)cc1 (racemic) [Example 48, (RS)-allyl-[4′-[(4-bromo-phenyl)-fluoro-methyl]-biphenyl-4-ylmethyl]-methyl-amine] | IC50 (Aspergillus fumigatus): 0.018 mg/mL (≈ 42.4 µM); IC50 (Candida albicans; [2]): < 0.00032 mg/mL; IC50 (Candida albicans; [3]): < 0.00032 mg/mL; IC50 (Cryptococcus neoformans): 0.00047 mg/mL (≈ 1.11 µM)
7 | 2.4 nM | 90% | C=CCN(C)C/C=C/COc1cc(F)c(C(=O)c2ccc(Br)cc2)cc1F [Example 1, (E)-[4-[4-(allyl-methyl-amino)-but-2-enyloxy]-2,5-difluoro-phenyl]-(4-bromo-phenyl)-methanone] | –
8 | – | 81% | O=C(c1ccc(Br)cc1)c1ccc(OC/C=C/CN2CCC(O)CC2)cc1 [Example 2l, (E)-(4-bromo-phenyl)-[4-[4-(4-hydroxy-piperidin-1-yl)-but-2-enyloxy]-phenyl]-methanone] | –
9 | – | 66% | CN(CCCCCCOc1ccc(C(=O)c2ccc(Br)cc2)c(F)c1)C1CC1 [Example 2p, (4-bromo-phenyl)-[4-[6-(cyclopropyl-methyl-amino)-hexyloxy]-2-fluoro-phenyl]-methanone] | –
10 | 4.9 nM | 92% | C=CCN(C)CCCCCCOc1ccc(C(=O)c2ccc(Br)cc2)c(SC)c1 [Example 3, [4-[6-(allyl-methyl-amino)-hexyloxy]-2-methylsulphanyl-phenyl]-(4-bromo-phenyl)-methanone] | –
11 | 13.5 nM | 90% | C=CCN(C)C/C=C/COc1ccc(C(=C)c2ccc(Br)cc2)cc1 [Example 8f, (E)-allyl-[4-[4-[1-(4-bromo-phenyl)-vinyl]-phenoxy]-but-2-enyl]-methyl-amine] | –
12 | – | 82% | CN(CCCCCCOc1ccccc1C(=O)c1ccc(Br)cc1)C1CC1 [Example 13a, [6-[6-(cyclopropyl-methyl-amino)-hexyloxy]-phenyl]-(4-bromo-phenyl)-methanone] | –
13 | 7.9 nM | 93.5% | CN(C/C=C/COc1ccc(C(=O)c2ccc(C#N)cc2)cc1F)C1CC1 [Example 13b, (E)-4-[4-[4-(cyclopropyl-methyl-amino)-but-2-enyloxy]-3-fluoro-benzoyl]-benzonitrile] | –
14 | 32 nM | 83% | CN(CCCCCCOc1ccc(C(=O)c2ccc(Br)cc2)cc1)CC1CC1 [Example 15, (4-bromo-phenyl)-[4-[6-(cyclopropylmethyl-methyl-amino)-hexyloxy]-phenyl]-methanone] | –
15 | – | – | C=CCN(C)C/C=C/COc1ccc(C(=O)/C=C/C=C(C)C)cc1F [Example 25, (E)-1-[4-[(E)-4-(allyl-methyl-amino)-but-2-enyloxy]-3-fluoro-phenyl]-5-methyl-hexa-2,4-dien-1-one] | IC50 (Aspergillus fumigatus): 0.00082 mg/mL (≈ 2.39 µM); IC50 (Candida albicans; [2]): 0.00032 mg/mL (≈ 0.932 µM); IC50 (Candida albicans; [3]): < 0.00032 mg/mL; IC50 (Cryptococcus neoformans): 0.001 mg/mL (≈ 2.91 µM)
16 | – | – | C=CCN(C)C/C=C/COc1ccc(C(=O)/C=C/C=C(C)C)cc1 [Example 26c, (E)-1-[4-[(E)-4-(allyl-methyl-amino)-but-2-enyloxy]-phenyl]-5-methyl-hexa-2,4-dien-1-one] | IC50 (Aspergillus fumigatus): 0.0084 mg/mL (≈ 25.8 µM); IC50 (Candida albicans; [2]): 0.00049 mg/mL (≈ 1.51 µM); IC50 (Candida albicans; [3]): 0.0057 mg/mL (≈ 17.5 µM); IC50 (Cryptococcus neoformans): 0.0027 mg/mL (≈ 8.3 µM)
17 | 3.2 nM | 93% | C=CCN(C)CCCCCCNc1ccc(C(=O)c2ccc(Br)cc2)cc1F [Example 30, [4-[6-(allyl-methyl-amino)-hexylamino]-3-fluoro-phenyl]-(4-bromo-phenyl)-methanone] | –
18 | 2.3 nM | 98% | C=CCN(C)CCCCCCOc1ccc(C(=O)c2ccc(Br)cc2)c(NC)c1 [Example 33, [4-[6-(allyl-methyl-amino)-hexyloxy]-2-methylamino-phenyl]-(4-bromo-phenyl)-methanone] | –
19 | 7.1 nM | 98% | C=CCN(C)CCCCCCOc1ccc(C(=O)c2ccc(Br)cc2)c(N(C)C)c1 [Example 34a, [4-[6-(allyl-methyl-amino)-hexyloxy]-2-dimethylamino-phenyl]-(4-bromo-phenyl)-methanone] | –
20 | – | 97% | C=CCN(C)CCCCCCOc1ccc(C(=O)c2ccc(Br)cc2)c(O)c1 [Example 35, [4-[6-(allyl-methyl-amino)-hexyloxy]-2-hydroxy-phenyl]-(4-bromo-phenyl)-methanone] | –
21 | 5.5 nM | 94% | C=CCN(C)CCCCCCOC1CCN(S(=O)(=O)c2ccc(Br)cc2)CC1 [Example 49, allyl-[6-[1-(4-bromo-phenylsulphonyl)-piperidin-4-yloxy]-hexyl]-methyl-amine] | –
22 | 12.8 nM | 87.5% | C=CCN(C)C/C=C/COc1ccc(C(=NOC)c2ccc(Br)cc2)cc1 [Example 51, (E)-and/or (Z)-[4-[(E)-4-(ally-methyl-amino)-but-2-enyloxy]-phenyl]-(4-bromo-phenyl)-methanone-0-methyl-oxime] | –
